What all share (test): NCI tumour cell line growth inhibition, 48 h
The subject of assay [1] is UACC-257 melanoma.
Assay [2] concerns HCC-2998 colon.
The subject of assay [3] is CCRF-CEM leukemia.
Assay [4] deals with KM12 colon.
Assay [5] relates to HT29 colon.
Assay [6] deals with OVCAR-5 ovarian.
The test system of assay [7] is RPMI-8226 leukemia.
Assay [8] has as its system SK-MEL-2 melanoma.
Assay [9] deals with CAKI-1 renal.
Assay [10] deals with PC-3 prostate.

The values below come from PubChem BioAssay (NCI).

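Growth conditions: 96-well plates. Treatment: test compound, 48 hours, 5 concentrations. Analysis: linear interpolation between bracketing concentrations; unreached endpoints set to highest concentration. GI50 marks 50% less growth. TGI denotes the concentration required for complete inhibition of growth.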 A value given as a limit tells only on which side of the number the result lay.

On to `CN1CCN(c2cc(Nc3cc(C4CC4)[nH]n3)nc(Nc3ccc(CC(=O)NCc4cccc(F)c4)cc3)n2)CC1`, for which the GI50 in assay [1] is 1.13 µM; in assay [2], 1.15 µM; in assay [3], 0.0495 µM; in [4], 0.0671 µM; in assay [5], 0.379 µM; in [6] it was 0.432 µM. Moreover, the GI50 was 2 µM in assay [7], 1.99 µM in [8], 0.823 µM in assay [9] and 0.616 µM in [10]. In addition, the TGI in [1] was 2.94 µM; in assay [2] it was 12.1 µM; in assay [3] it was 7.49 µM; in assay [4], 12.1 µM; in assay [5], 11.6 µM; in assay [6] it was 15.8 µM. Further, the TGI in [7] was 6.52 µM; in assay [8], 9.32 µM; in assay [9], 4.74 µM; in assay [10], 22.8 µM.

As for `N#Cc1ccc2oc3ccc(C#N)cc3c(=O)c2c1`, the TGI was more than 100 µM in [1]; more than 100 µM in [2]; 74 µM in assay [3]; more than 100 µM in [4]; 40.1 µM in assay [5]; 34.5 µM in assay [6]. For the same compound, the TGI is 62.4 µM in assay [7], 37.4 µM in assay [8], more than 100 µM in [9] and 55 µM in [10].

Take `Cc1nc2ccc(NCCN(C)C)c3c(=O)c4cc(O)ccc4n1c23`: the TGI in [1] turned out to be 13.6 µM; in [2], 1.71 µM; in assay [3] it was 2.5 µM; in assay [4] it was 4.09 µM; in assay [5], 2.4 µM; in assay [6] it was 6.05 µM. For the same compound, the TGI turned out to be 6.23 µM in assay [7], 13.4 µM in assay [8], 3.94 µM in [9] and 4.86 µM in assay [10].

For the compound `COc1cccc2c1C(=O)c1c(O)c3c(c(O)c1C2=O)C[C@@](O)(/C(C)=N\O)C[C@@H]3OC1CC(N)C(O)C(C)O1` (stereo partly drawn), the TGI is 6.02 µM in [1]; 3.04 µM in assay [2]; 2.38 µM in assay [3]; 15.8 µM in assay [4]; 13.2 µM in [5]; 12.2 µM in assay [6]. Moreover, the TGI in assay [7] is 8.33 µM; in assay [8], 2.48 µM; in [9], 22.6 µM; in [10] it was 8.08 µM.

For `CCC(C)CC(CC)NCCN1CCN(C(CC)CC(C)CC)C1=S` (stereo not drawn), the GI50 is 1.65 µM in assay [1]; 1.57 µM in assay [2]; 1.86 µM in assay [3]; 1.71 µM in assay [4]; 1.67 µM in [5]; 1.72 µM in assay [6]. Also, the GI50 in assay [7] is 1.85 µM; in [8], 1.89 µM; in assay [9] it was 1.8 µM; in assay [10] it was 2.05 µM. In addition, the TGI turned out to be 3.1 µM in [1]; 2.9 µM in assay [2]; 4.98 µM in assay [3]; 3.22 µM in assay [4]; 3.1 µM in assay [5]; 3.32 µM in assay [6]. The TGI in [7] was 4.25 µM; in assay [8] it was 3.41 µM; in [9], 3.66 µM; in assay [10] it was 6.87 µM.

Take `CN(C)CCCC(=O)Nc1ccc(Cn2nnc3c2C(=O)c2nnn(Cc4ccc(NC(=O)CCCN(C)C)cc4)c2C3=O)cc1`: the GI50 was 3.25 µM in assay [1]; 2.43 µM in [2]; 2.04 µM in assay [3]; 7.54 µM in [4]; 3.22 µM in [5]; 19 µM in assay [6]. Also, the GI50 was 3.17 µM in [7], 2.17 µM in [8], more than 100 µM in assay [9] and 4.75 µM in [10]. The TGI came out at 11.6 µM in assay [1]; 5.22 µM in [2]; 6.35 µM in assay [3]; 22.7 µM in assay [4]; 7.87 µM in assay [5]; 51.4 µM in [6]. Further, the TGI was 15.9 µM in [7], 4.64 µM in assay [8], more than 100 µM in assay [9] and 43.4 µM in [10].

As for `O=C1C(=O)c2c(nc3ncccn23)-c2ccccc21`, the GI50 was 0.175 µM in assay [1]; 0.408 µM in [2]; 0.328 µM in assay [3]; 0.678 µM in assay [4]; 0.838 µM in assay [5]; 0.397 µM in assay [6]. Further, the GI50 in [7] was 0.198 µM; in assay [8], 0.243 µM; in assay [9] it was 0.64 µM; in [10], 0.32 µM. Besides, the TGI in assay [1] was found to be 0.339 µM; in [2], 0.935 µM; in [3] it was 3.45 µM; in assay [4], 1.9 µM; in assay [5], 2.29 µM; in assay [6] it was 0.852 µM. The TGI in assay [7] amounted to 0.602 µM; in assay [8] it was 0.532 µM; in assay [9], 1.9 µM; in [10] it was 1.34 µM.

With `COc1cccc2c(Nc3ccc(C(=O)NCCN(C)C)cc3)cc(-c3ccccc3)nc12`, the GI50 in assay [1] is 15.7 µM; in assay [2] it was 11.5 µM; in assay [3] it was 8.86 µM; in assay [4], 19.7 µM; in [5], 28.5 µM; in [6], 23.7 µM. Moreover, the GI50 is 6.11 µM in assay [7], 17.9 µM in assay [8], 27.8 µM in assay [9] and 13.3 µM in assay [10]. For the same compound, the TGI in assay [1] was 29.9 µM; in assay [2], 24.9 µM; in assay [3], 33.2 µM; in [4], 43.2 µM; in [5] it was more than 100 µM; in assay [6] it was 50.6 µM. For the same compound, the TGI in assay [7] came out at 24.4 µM; in assay [8], 36.8 µM; in [9], 55.3 µM; in [10], 40.5 µM.

Turning to `O=C(CC(=O)c1ccccc1NC1=Cc2ccccc2C(=O)C1=O)C(=O)NC1=C(Cl)C(=O)c2ccccc2C1=O`, the TGI turned out to be 4.49 µM in assay [1]; 26.8 µM in [2]; 33.6 µM in assay [3]; 15.6 µM in assay [4]; 26.1 µM in [5]; 12.6 µM in assay [6]. Further, the TGI in [7] worked out at 14.5 µM; in assay [8] it was 6.6 µM; in assay [9] it was 24.1 µM; in [10], 6.69 µM.

For `Nc1nc(Nc2ccc3c(c2)CCC(N2CCCC2)CC3)nn1-c1cc2c(nn1)-c1ccccc1CCC2` (stereo not drawn), the GI50 in assay [1] was 1.7 µM; in assay [2], 1.55 µM; in assay [3], 1.24 µM; in assay [4], 1.02 µM; in [5], 0.667 µM; in assay [6] it was 1.39 µM. Further, the GI50 in assay [7] was 1.4 µM; in assay [8], 1.04 µM; in assay [9], 0.531 µM; in assay [10] it was 0.629 µM. For the same compound, the TGI in assay [1] was determined as 3.36 µM; in [2], 2.97 µM; in assay [3] it was 4.67 µM; in assay [4] it was 2.73 µM; in assay [5], 2.6 µM; in assay [6] it was 2.76 µM. Besides, the TGI was found to be 3.81 µM in [7], 2.53 µM in assay [8], 2.05 µM in assay [9] and 2.14 µM in [10].

For `C[C@@]12CCC[C@@](C)(C(=O)O)C1CC[C@@]13CC(=O)[C@@](CO)(CCC12)C3` (stereo partly drawn), the GI50 in [1], in assay [2], in assay [3], in assay [4], in assay [5] and in assay [6] was more than 100 µM in each case. Moreover, the GI50 in assay [7], in assay [8], in assay [9] and in assay [10] was more than 100 µM in each case. Also, the TGI in [1], in assay [2], in assay [3], in assay [4], in [5] and in assay [6] was more than 100 µM in each case. Besides, the TGI in assay [7], in assay [8], in assay [9] and in [10] was more than 100 µM throughout.

Regarding `NCC(=O)CCC(=O)O`, the GI50 in [1] was more than 100 µM; in assay [2], more than 100 µM; in [3], more than 87.2 µM; in assay [4], more than 100 µM; in [5], more than 100 µM; in assay [6] it was more than 100 µM. Further, the GI50 in assay [7], in assay [8], in assay [9] and in assay [10] was more than 100 µM each time. In addition, the TGI in assay [1], in assay [2], in [3], in assay [4], in assay [5] and in [6] was more than 100 µM each time. The TGI in assay [7], in [8], in assay [9] and in assay [10] was more than 100 µM throughout.

On to `COc1cc2c3c(n(C)c(=O)c2cc1OC)-c1cc2c(cc1/C3=C\[C@@H](N)CCCCN)OCO2`, for which the GI50 is 5.24 µM in assay [1]; 2.99 µM in assay [2]; 0.996 µM in assay [3]; 1.58 µM in assay [4]; 0.337 µM in assay [5]; 5.14 µM in assay [6]. For the same compound, the GI50 was 2.57 µM in assay [7], 13.2 µM in assay [8], 4.26 µM in [9] and 2.71 µM in assay [10]. Further, the TGI in [1] was more than 52.8 µM; in assay [2] it was 45.9 µM; in assay [3], more than 100 µM; in [4] it was more than 100 µM; in assay [5] it was more than 100 µM; in assay [6], more than 100 µM. For the same compound, the TGI was 35.2 µM in assay [7], more than 100 µM in assay [8], more than 75.1 µM in assay [9] and more than 53.1 µM in [10].

As for `COc1ccc(-c2c(C#N)c(N)nc3c2CCCc2ccc(F)cc2-3)cc1OC`, the TGI in assay [1] was more than 78.5 µM; in assay [2], 14.4 µM; in assay [3] it was more than 92.8 µM; in assay [4] it was 2.58 µM; in assay [5], more than 41.3 µM; in assay [6] it was more than 100 µM. Besides, the values for the TGI in assay [7], in assay [8] and in assay [9] were 1.61 µM, more than 100 µM and 35.1 µM, respectively. Further, the GI50 in [2] was 0.354 µM; in assay [3], less than 0.0105 µM; in assay [4] it was less than 0.01 µM; in [5] it was 1.07 µM; in assay [6], 8.97 µM; in [7] it was less than 0.01 µM. Besides, the GI50 was less than 0.01 µM in assay [8], 0.0241 µM in assay [9] and less than 0.0185 µM in assay [10].

Turning to `COC(=O)[C@H](Cc1ccccc1)NC(=O)[C@@H](OC)[C@@H]1Cc2cc3cc(OC4CC(OC5CC(O)C(O)C(C)O5)C(O)C(C)O4)c(C)c(O)c3c(O)c2C(=O)[C@H]1OC1CC(OC2CC(OC3CC(C)(O)C(O)C(C)O3)C(O)C(C)O2)C(O)C(C)O1` (stereo partly drawn), the GI50 is 0.0103 µM in [1]; 0.0158 µM in assay [2]; 0.0137 µM in assay [3]; 0.0148 µM in assay [4]; 0.0268 µM in assay [5]; 0.0396 µM in [6]. The GI50 was 0.0109 µM in assay [7], 0.0173 µM in assay [8], 0.0416 µM in assay [9] and 0.0215 µM in [10]. The TGI in assay [1] was 2.54 µM; in assay [2], 0.0478 µM; in assay [3], more than 14.3 µM; in [4], 0.12 µM; in [5], more than 14.3 µM; in assay [6], more than 14.3 µM. Also, the TGI in [7] is 0.073 µM; in assay [8], 0.0707 µM; in assay [9], more than 14.3 µM; in assay [10], 0.429 µM.

As for `C=C(C(=O)OC)[C@@H]1C[C@@H](O)[C@]2(C)CC/C=C(\C)CCC[C@H](C)[C@H](O)C1O2`, the GI50 is more than 100 µM in [1]; 73 µM in assay [2]; 24.2 µM in [3]; 41 µM in assay [4]; 53 µM in [5]; more than 100 µM in assay [6]. Also, the GI50 in [7] was 27.6 µM; in assay [8], 48.5 µM; in [9], 45.5 µM; in assay [10], 30.9 µM. Further, the TGI in assay [1] is more than 100 µM; in assay [2], more than 100 µM; in assay [3], 46 µM; in assay [4] it was more than 100 µM; in assay [5], more than 100 µM; in assay [6] it was more than 100 µM. The TGI in [7] was 59 µM; in [8] it was more than 100 µM; in [9], more than 100 µM; in assay [10], more than 100 µM.
